For the experiment, the target named is [35S]-TBPS binding, rat brain cortical membranes (GABAA receptor). Briefly: Steroid inhibition of [35S]-TBPS binding. Particulars: 3 nM [35S]-TBPS, in the presence of 5 mM GABA, 90 min at room temp. On the procedure: Steroid Inhibition of TBPS Binding
[^35S]-t-Butylbicyclophosphorothionate (TBPS) binding assays using rat brain cortical membranes in the presence of 5 mM GABA has been described (Gee et al, J. Pharmacol. Exp. Ther. 1987, 241, 346-353; Hawkinson et al, Mol. Pharmacol. 1994, 46, 977-985; Lewin, A. H et al., Mol. Pharmacol. 1989, 35, 189-194).
Briefly, cortices are rapidly removed following decapitation of carbon dioxide-anesthetized Sprague-Dawley rats (200-250 g). The cortices are homogenized in 10 volumes of ice-cold 0.32 M sucrose using a glass/teflon homogenizer and centrifuged at 1500×g for 10 min at 4° C. The resultant supernatants are centrifuged at 10,000×g for 20 min at 4° C. to obtain the P2 pellets. The P2 pellets are resuspended in 200 mM NaCl/50 mM Na—K phosphate pH 7.4 buffer and centrifuged at 10,000×g for 10 min at 4° C. This washing procedure is repeated twice and the pellets are resuspended in 10 volumes of buffer. Aliquots ([…]) of the membrane suspensions are incubated with 3 nM [^35S]-TBPS and […] aliquots of test drug dissolved in dimethyl sulfoxide (DMSO) (final 0.5%) in the presence of 5 mM GABA. The incubation is brought to a final volume of 1.0 mL with buffer. Nonspecific binding is determined in the presence of […] and ranged from 15 to 25%. Following a 90 min incubation at room temp, the assays are terminated by filtration through glass fiber filters (Schleicher and Schuell No. 32) using a cell harvester (Brandel) and rinsed three times with ice-cold buffer. Filter bound radioactivity is measured by liquid scintillation spectrometry. Non-linear curve fitting of the overall data for each drug averaged for each concentration is done using Prism (GraphPad). […] The concentration of test compound producing 50% inhibition (IC50) of specific binding and the maximal extent of inhibition (Imax) are determined for the individual experiments with the same model used for the overall data and then the means±SEM.s of the individual experiments are calculated.
Various compounds are or can be screened to determine their potential as modulators of [^35S]-TBPS binding in vitro. These assays are or can be performed in accordance with the above
Consider `CCC[C@@]1(O)CC[C@H]2[C@H](CC[C@@H]3[C@@H]2CC[C@]2(C)[C@@H](C(=O)Nc4cnc(C#N)nc4)CC[C@@H]32)C1` [Compound 86, (3R,5R,8R,9R,10S,13S,14S,17S)—N-(2-cyanopyrimidin-5-yl)-3-hydroxy-13-methyl-3-propylhexadecahydro-1H-cyclopenta[a]phenanthrene-17-carboxamide], for which the IC50 – broadly, the midpoint of a concentration-inhibition curve – is 0.1 to 1 µM.

Regarding `CCC[C@@]1(O)CC[C@H]2[C@H](CC[C@@H]3[C@@H]2CC[C@]2(C)[C@@H](C(=O)Nc4ccnc(C#N)n4)CC[C@@H]32)C1` [Compound 87, (3R,5R,8R,9R,10S,13S,14S,17S)—N-(2-cyanopyrimidin-4-yl)-3-hydroxy-13-methyl-3-propylhexadecahydro-1H-cyclopenta[a]phenanthrene-17-carboxamide], the IC50 is less than 0.1 µM.

Take `C[C@H]1C[C@H]2[C@H](CC[C@@H]3[C@@H]2CC[C@]2(C)[C@@H](C(=O)Nc4cnc(C#N)cn4)CC[C@@H]32)C[C@]1(C)O` [Compound 88, (2S,3S,5R,8R,9R,10S,13S,14S,17S)—N-(5-cyanopyrazin-2-yl)-3-hydroxy-2,3,13-trimethylhexadecahydro-1H-cyclopenta[a]phenanthrene-17-carboxamide]: the IC50 was less than 0.1 µM.

Turning to `COC[C@@]1(O)CC[C@H]2[C@H](CC[C@@H]3[C@@H]2CC[C@]2(C)[C@@H](C(=O)Nc4cnc(C#N)nc4)CC[C@@H]32)C1` [Compound 89, (3R,5R,8R,9R,10S,13S,14S,17S)—N-(2-cyanopyrimidin-5-yl)-3-hydroxy-3-(methoxymethyl)-13-methylhexadecahydro-1H-cyclopenta[a]phenanthrene-17-carboxamide], the IC50 is less than 0.1 µM.

Regarding `CCC[C@@]1(O)CC[C@H]2[C@H](CC[C@@H]3[C@@H]2CC[C@]2(C)[C@@H](C(=O)Nc4ncc(C#N)cn4)CC[C@@H]32)C1` [Compound 90, (3R,5R,8R,9R,10S,13S,14S,17S)—N-(5-cyanopyrimidin-2-yl)-3-hydroxy-13-methyl-3-propylhexadecahydro-1H-cyclopenta[a]phenanthrene-17-carboxamide], the IC50 is less than 0.1 µM.

Regarding `COC[C@@]1(O)CC[C@H]2[C@H](CC[C@@H]3[C@@H]2CC[C@]2(C)[C@@H](C(=O)Nc4ccnc(C#N)n4)CC[C@@H]32)C1` [Compound 91, (3R,5R,8R,9R,10S,13S,14S,17S)—N-(2-cyanopyrimidin-4-yl)-3-hydroxy-3-(methoxymethyl)-13-methylhexadecahydro-1H-cyclopenta[a]phenanthrene-17-carboxamide], the IC50 was less than 0.1 µM.

As to `COC[C@@]1(O)CC[C@H]2[C@H](CC[C@@H]3[C@@H]2CC[C@]2(C)[C@@H](C(=O)Nc4nccc(C#N)n4)CC[C@@H]32)C1` [Compound 92, (3R,5R,8R,9R,10S,13S,14S,17S)—N-(4-cyanopyrimidin-2-yl)-3-hydroxy-3-(methoxymethyl)-13-methylhexadecahydro-1H-cyclopenta[a]phenanthrene-17-carboxamide], the IC50 lay within 0.1 to 1 µM.

On to `CCC[C@@]1(O)CC[C@H]2[C@H](CC[C@@H]3[C@@H]2CC[C@]2(C)[C@@H](C(=O)Nc4nccc(C#N)n4)CC[C@@H]32)C1` [Compound 93, (3R,5R,8R,9R,10S,13S,14S,17S)—N-(4-cyanopyrimidin-2-yl)-3-hydroxy-13-methyl-3-propylhexadecahydro-1H-cyclopenta[a]phenanthrene-17-carboxamide], for which the IC50 is less than 0.1 µM.

Take `COC[C@@]1(O)CC[C@H]2[C@H](CC[C@@H]3[C@@H]2CC[C@]2(C)[C@@H](C(=O)Nc4cc(C#N)ncn4)CC[C@@H]32)C1` [Compound 94, (3R,5R,8R,9R,10S,13S,14S,17S)—N-(6-cyanopyrimidin-4-yl)-3-hydroxy-3-(methoxymethyl)-13-methylhexadecahydro-1H-cyclopenta[a]phenanthrene-17-carboxamide]: the IC50 is less than 0.1 µM.
